Reference: the NIST ThermoML archive (doi:10.1021/je500093z)

Tests used:
[1] = for surface tension liquid-gas: Ring tensiometer; for viscosity / speed of sound / mass density: 101.33 kPa, Liquid; for speed of sound: Pulse-echo method; for mass density: Vibrating tube method
[2] = refractive index (Na D-line) (dimensionless); settings: 101.33 kPa, Liquid, Standard Abbe refractometry

CCn1cc[n+](C)c1.COS(=O)(=O)[O-] [1-ethyl-3-methylimidazolium methylsulfate]
Settings | mass density, [1] [kg/m3] | refractive index, [2] | speed of sound, [1] [m/s] | surface tension liquid-gas, [1] [mN/m] | viscosity, [1] [mPa·s]
298.15 K | 1292 | 1.4741 | 1762.1 | 39.8 | 94.91
303.15 K | 1289 | 1.4739 | 1750.4 | 39.5 | 76.8
308.15 K | 1285 | 1.4735 | 1738.7 | 39.2 | 61.66
313.15 K | 1282 | 1.4721 | 1727 | 38.9 | 51.28
318.15 K | 1279 | 1.4716 | 1715.5 | 38.8 | 42.42
323.15 K | 1275 | 1.4706 | 1704 | 38.4 | 35.33
328.15 K | 1272 | 1.4702 | 1692.6 | 38.2 | 30.11
333.15 K | 1268 | 1.4698 | 1681.3 | 38 | 26.25

CC(C)C[P+](C)(CC(C)C)CC(C)C.Cc1ccc(S(=O)(=O)[O-])cc1 [triisobutylmethylphosphonium p-toluenesulfonate]
Settings | mass density, [1] [kg/m3] | refractive index, [2] | speed of sound, [1] [m/s] | surface tension liquid-gas, [1] [mN/m] | viscosity, [1] [mPa·s]
298.15 K | 1068 | 1.5185 | 1628.8 | 33.9 | 2132.4
303.15 K | 1065 | 1.5181 | 1610.6 | 33.8 | 1363.2
308.15 K | 1062 | 1.5174 | 1585.6 | 33.6 | 896.08
313.15 K | 1059 | 1.516 | 1567.6 | 33.4 | 606.71
318.15 K | 1056 | 1.5151 | 1551.1 | 33.2 | 422.49
323.15 K | 1053 | 1.5144 | 1535.7 | 32.9 | 302.17
328.15 K | 1050 | 1.5123 | 1521.5 | 32.8 | 221.27
333.15 K | 1047 | 1.5119 | 1508.3 | 32.6 | 165.53

CCCCCCn1cc[n+](C)c1.F[P-](F)(F)(F)(F)F [1-hexyl-3-methylimidazolium hexafluorophosphate]
Settings | mass density, [1] [kg/m3] | refractive index, [2] | speed of sound, [1] [m/s] | surface tension liquid-gas, [1] [mN/m] | viscosity, [1] [mPa·s]
298.15 K | 1292 | 1.4179 | 1424.4 | 37.2 | 349.17
303.15 K | 1288 | 1.4161 | 1411.3 | 36.9 | 253.96
308.15 K | 1284 | 1.4148 | 1399.6 | 36.6 | 188.77
313.15 K | 1280 | 1.4134 | 1386.7 | 36.3 | 142.99
318.15 K | 1276 | 1.4115 | 1374.9 | 36 | 110.24
323.15 K | 1272 | 1.4104 | 1363.4 | 35.7 | 86.42
328.15 K | 1268 | 1.4088 | 1352.1 | 35.4 | 68.87
333.15 K | 1264 | 1.4075 | 1340.8 | 35.1 | 55.62

CCCCCCCC[n+]1ccn(C)c1.F[P-](F)(F)(F)(F)F [1-octyl-3-methylimidazolium hexafluorophosphate]
Settings | mass density, [1] [kg/m3] | refractive index, [2] | speed of sound, [1] [m/s] | surface tension liquid-gas, [1] [mN/m] | viscosity, [1] [mPa·s]
298.15 K | 1234 | 1.4217 | 1404.7 | 36.1 | 603.44
303.15 K | 1231 | 1.4211 | 1390.3 | 35.9 | 430.88
308.15 K | 1226 | 1.4206 | 1376.6 | 35.6 | 314.44
313.15 K | 1223 | 1.4201 | 1363.6 | 35.3 | 234.24
318.15 K | 1219 | 1.4195 | 1351 | 35.1 | 177.79
323.15 K | 1215 | 1.4186 | 1338.9 | 34.9 | 137.24
328.15 K | 1211 | 1.4177 | 1327 | 34.6 | 107.58
333.15 K | 1208 | 1.4167 | 1315.5 | 34.3 | 85.58

COS(=O)(=O)[O-].Cn1cc[n+](C)c1 [1,3-dimethylimidazolium methylsulfate]
Settings | mass density, [1] [kg/m3] | refractive index, [2] | speed of sound, [1] [m/s] | surface tension liquid-gas, [1] [mN/m] | viscosity, [1] [mPa·s]
298.15 K | 1329 | 1.4817 | 1811.5 | 57.6 | 71.7
303.15 K | 1323 | 1.4811 | 1799.4 | 57.3 | 57.6
308.15 K | 1319 | 1.4804 | 1787.3 | 56.8 | 46.93
313.15 K | 1316 | 1.4797 | 1775.4 | 56.4 | 38.81
318.15 K | 1312 | 1.4792 | 1763.6 | 56 | 32.52
323.15 K | 1308 | 1.4785 | 1751.9 | 55.5 | 27.59
328.15 K | 1305 | 1.4779 | 1740.3 | 55.1 | 23.67
333.15 K | 1302 | 1.4771 | 1728.8 | 54.8 | 20.5

CCCCCCCC[n+]1ccn(C)c1.[Cl-] [1-methyl-3-octylimidazolium chloride]
Settings | mass density, [1] [kg/m3] | refractive index, [2] | speed of sound, [1] [m/s] | surface tension liquid-gas, [1] [mN/m] | viscosity, [1] [mPa·s]
298.15 K | 1010 | 1.5088 | 1687.2 | 32.5 | 13267
303.15 K | 1007 | 1.5085 | 1667.7 | 32.2 | 7770.4
308.15 K | 1004 | 1.5061 | 1646.1 | 31.9 | 4755.2
313.15 K | 1001 | 1.5058 | 1619.6 | 31.6 | 3006.7
318.15 K | 998 | 1.5054 | 1597.1 | 31.3 | 1967.6
323.15 K | 995 | 1.5048 | 1577.4 | 31 | 1323.4
328.15 K | 992 | 1.5037 | 1559.6 | 30.7 | 914.13
333.15 K | 989 | 1.5029 | 1543 | 30.4 | 646.96

CCCC[n+]1ccc(C)cc1.F[B-](F)(F)F [1-butyl-4-methylpyridinium tetrafluoroborate]
Settings | mass density, [1] [kg/m3] | refractive index, [2] | speed of sound, [1] [m/s] | surface tension liquid-gas, [1] [mN/m] | viscosity, [1] [mPa·s]
298.15 K | 1190 | 1.4507 | 1602.3 | 45.4 | 202.86
303.15 K | 1186 | 1.4502 | 1589.7 | 45.1 | 146.57
308.15 K | 1183 | 1.4495 | 1577.4 | 44.8 | 108.7
313.15 K | 1179 | 1.4488 | 1565.2 | 44.5 | 82.49
318.15 K | 1176 | 1.4482 | 1553.2 | 44.2 | 63.94
323.15 K | 1173 | 1.4475 | 1541.2 | 43.9 | 50.51
328.15 K | 1169 | 1.4469 | 1529.6 | 43.5 | 40.6
333.15 K | 1166 | 1.4463 | 1517.9 | 43.2 | 33.14

CCCCn1cc[n+](C)c1.F[P-](F)(F)(F)(F)F [1-butyl-3-methylimidazolium hexafluorophosphate]
Settings | mass density, [1] [kg/m3] | refractive index, [2] | speed of sound, [1] [m/s] | surface tension liquid-gas, [1] [mN/m] | viscosity, [1] [mPa·s]
298.15 K | 1367 | 1.4101 | 1443.6 | 43 | 273.94
303.15 K | 1363 | 1.4085 | 1431.6 | 42.6 | 203.2
308.15 K | 1359 | 1.4081 | 1419.8 | 42.2 | 153.99
313.15 K | 1355 | 1.407 | 1408.3 | 41.9 | 118.96
318.15 K | 1351 | 1.4068 | 1396.9 | 41.7 | 93.44
323.15 K | 1347 | 1.4058 | 1385.8 | 41.2 | 74.6
328.15 K | 1343 | 1.4053 | 1374.7 | 40.8 | 60.43
333.15 K | 1339 | 1.4042 | 1363.8 | 40.5 | 49.62

CCCCn1cc[n+](C)c1.O=S(=O)([O-])O [1-butyl-3-methylimidazolium hydrogen sulfate]
Settings | mass density, [1] [kg/m3] | refractive index, [2] | speed of sound, [1] [m/s] | surface tension liquid-gas, [1] [mN/m] | viscosity, [1] [mPa·s]
298.15 K | 1224 | 1.5043 | 1689.8 | 43.6 | 439.36
303.15 K | 1220 | 1.5 | 1676.7 | 43.2 | 321.95
308.15 K | 1217 | 1.4965 | 1664.3 | 42.8 | 240.81
313.15 K | 1214 | 1.4914 | 1652.1 | 42.4 | 183.54
318.15 K | 1211 | 1.4857 | 1640.2 | 42 | 142.55
323.15 K | 1208 | 1.4813 | 1628.5 | 41.7 | 112.37
328.15 K | 1204 | 1.4762 | 1615.5 | 41.3 | 89.95
333.15 K | 1201 | 1.4721 | 1601.5 | 40.9 | 72.88
